This is an account of results in US12473305B2, “Pyrazole boronic acid compound, pharmaceutical composition containing same, and uses thereof” (BEIJING SONGRUN PHARMACEUTICAL TECHNOLOGY CO., LTD., priority 2020, dated 2025).

The target in assay [1] is T1, 20S proteasome β5 subunit (Homo sapiens, UniProt P20618+P28074).
T1 construct: endogenous in cells; host or cells: K562
The assay is described as follows: Proteasome-Glo Cell-Based assay in K562 cells, β5 subunit. The settings on record: 2 h incubation. Here is the method:
Proteasome-Glo™ Cell-Based assay kit (Promega, USA) was used to determine the activity of the target compound against the 20S proteasome. Human chronic myeloid leukemia cell line (K562, 6000 cells/well) was inoculated into the 384 well plate in 20 μL/well. The cells were then equilibrated at 37° C., 5% CO2 for 2 hours. Each 384 well plate was set with the mock group and treatment group, and each well of the treatment group was added with 5 μL of the compound solution with the final concentration of 40 μM, 13.3 μM, 4.44 μM, 1.48 μM, 0.49 μM, 0.16 μM, 0.055 μM, 0.0183 μM, […], 0.0061 μM. The cells was incubated with the drugs for 2 hours at 37° C., 5% CO2 before adding 25 μL of corresponding Proteasome-Glo™ Cell-Based reagent per well. The relative luminescence unit (RLU) was measured by using Multimode Microplate Reader Varioskan Flash (Thermo Scientific, USA) after 15 min and compared with the RLU of the control group. SigmaPlot 10.0 software was used to calculate IC50 value.

For assay [2], the system named is Human melanoma cell line A375. The assay is described as follows: CellTiter-Glo tumor cell proliferation, A375. Format: cell-based. The following applies: Homo sapiens, A-375; CellTiter-Glo, 72 h. An outline of the steps: (§1)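 Cells seeded at 2×10^4/mL, grown 24 h at 37° C, 5% CO2, then treated in triplicate with medium-diluted compound for 72 h. CellTiter-Glo luminescence read after 20 min at 37° C; inhibition versus untreated control RLU, IC50 calculated.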

In assay [3] the test system is colorectal cancer cell line HCT116. The assay is described as follows: CellTiter-Glo tumor cell proliferation, HCT116. Format: cell-based, human. The following applies: Homo sapiens, HCT-116; CellTiter-Glo, 72 h. A digest of the protocol: as §1
A general note: In ATP-based viability assays light output follows the ATP content of the culture.

The next assay relates to MCF-7. The assay is described as follows: MTT antitumor spectrum, MCF-7. Format: cell-based. The following applies: Homo sapiens, MCF7, 72 h. Here is the method: (§2) The activity of compound 30 was evaluated by MTT method against seven tumor cell models, A549, A375, HCT116, MDA-MB-231, HepG2, PC3 and MCF-7. All cells used in the study were prepared at a concentration of 3.5×10^3 cells/mL, and each […] cell suspension was inoculated on a 96-well microtiter plate for 24 hours (37° C., 5% CO2). Then different concentrations of compound 30 were added, incubated for 72 hours; and for the control group, equivalent concentrations of DMSO (final concentration 0.5%) were added. The number of viable cells was measured by MTT (3-(4,5-dimethylthiazol-2-yl)-diphenyl tetrazolium bromide) method, and the OD value at 492/620 nm was recorded. The IC50 value was calculated by Prism-Graphpad software based on the results of triplicate experiments.

The next assay has as its system HepG2. The assay is described as follows: MTT antitumor spectrum, HepG2. It counts as cell-based. The settings on record: Homo sapiens, 72 h. Here is the method:
as §2

The test system of assay [4] is human multiple myeloma RPMI 8226. The assay is described as follows: Pharmacodynamic study, RPMI 8226 subcutaneous xenograft. Format: in vivo, female NOD/SCID mice. The settings on record: BIW, tail vein, day of the last administration; for Tumor volume (x ± S): in mm³ (unit assumed). Here is the method: The anti-tumor effect in vivo was studied by using the tumor animal model obtained by subcutaneous xenotransplantation of cell lines into female NOD/SCID mice (purchased from Sipeifu Biotechnology Co., Ltd.).
RPMI 8226 cells were subcutaneously inoculated into NOD/SCID mice, and human multiple myeloma subcutaneously transplanted tumor model was successfully established 9 days after inoculating the cells. The test was divided into vehicle (0.3 mL DMSO, 0.27 mL Tween-80, 2.43 mL normal saline) control group, compound 30 low-dose group (20 mg/kg), compound 30 medium-dose group (30 mg/kg), compound 30 high-dose group (40 mg/kg), compound 39 low-dose group (5 mg/kg), compound 39 medium-dose group (10 mg/kg), and compound 39 high-dose group (15 mg/kg), and bortezomib (API purchased from Yangtze River Pharmaceutical) was used as the positive control group (0.5 mg/kg); 5 tumor-bearing mice established above in each group were administered by tail vein twice a week for nine times in total. The long diameter a (mm) of the tumor and the short diameter b (mm) of the tumor perpendicular to the long diameter were measured with digital electronic caliper twice a week. The calculation formula of tumor volume was: TV=ab^2/2; and the calculation formula of relative tumor volume was: RTV=Vt/Vo, Vo was the tumor volume measured when the mice in each group were divided into cages and administered for the first time (d1), and Vt was the tumor volume measured at the last administration. The animals were sacrificed 31 days (d22) after inoculation of RPMI 8226 cells, and weighed. The tumor mass was dissected and weighed, and the tumor inhibition rate was calculated according to the following formula: […]

For the next assay, the system named is A549. The assay is described as follows: MTT antitumor spectrum, A549. The following applies: Homo sapiens, 72 h. It counts as cell-based. Here is the method:
as §2

In a further assay the test system is MDA-MB-231. The assay is described as follows: MTT antitumor spectrum, MDA-MB-231. It counts as cell-based. The settings on record: Homo sapiens, 72 h. Here is the method:
as §2

Broadly, the IC50 is the concentration needed to halve the response being measured. A lower IC50 goes with greater potency.

Regarding `CC(C)C[C@H](NC(=O)Cn1nc(-c2cccc(OCCN3CCOCC3)c2)cc1-c1ccccc1)B(O)O.Cl` [Compound 30, (R)-(3-methyl-1-(2-(3-(3-(2-morpholinoethoxy)phenyl)-5-phenyl-1H-pyrazol-1-yl)-acetamido)butyl)boronic acid hydrochloride], the IC50 in assay [1] was determined as 400 nM; in assay [2] it was 822 nM; in assay [3], 630 nM; in the assay on MCF-7, 690 nM; in the assay on HepG2, 1080 nM; in the assay with A549, 3050 nM. This compound also had an IC50 with MDA-MB-231 of 940 nM. Further, the “Relative tumor volume (x ± S)” value came to 2.57 ± 0.61 in assay [4] (20 mg/kg), 1.63 ± 0.32 in assay [4] (30 mg/kg) and 0.74 ± 0.12 in assay [4] (40 mg/kg). The “T/C (%)” value was 27.55% in assay [4] (20 mg/kg), 17.47% in assay [4] (30 mg/kg) and 7.93% in assay [4] (40 mg/kg). Besides, the “TGI (%)” value amounted to 72.45% in assay [4] (20 mg/kg), 82.53% in assay [4] (30 mg/kg) and 92.07% in assay [4] (40 mg/kg). For the same compound, the results for the “Tumor volume (x ± S)” value in assay [4] (20 mg/kg), in assay [4] (30 mg/kg) and in assay [4] (40 mg/kg) were 267.27 ± 77.46, 147.56 ± 33.02 and 72.06 ± 13.62, respectively.
Regarding `CC(C)C[C@H](NC(=O)Cn1nc(-c2cccc(OCCN3CCN(c4ccccc4)CC3)c2)cc1-c1ccccc1)B(O)O.Cl` [Compound 39, (R)-(3-methyl-1-(2-(5-phenyl-3-(3-(2-(4-phenylpiperazin-1-yl)ethoxy)phenyl)-1H-pyrazol-1-yl)acetamido)butyl)boronic acid hydrochloride], the results for the IC50 in assay [1] and in assay [3] were 200 nM and 84 nM, respectively. Also, the results for the “Relative tumor volume (x ± S)” value in assay [4] (5 mg/kg), in assay [4] (10 mg/kg) and in assay [4] (15 mg/kg) were 1.51 ± 0.38, 0.62 ± 0.28 and 0.36 ± 0.02, respectively. Further, the “T/C (%)” value was determined as 16.18% in assay [4] (5 mg/kg), 6.65% in assay [4] (10 mg/kg) and 3.86% in assay [4] (15 mg/kg). The “TGI (%)” value in assay [4] (5 mg/kg) was determined as 83.82%; in assay [4] (10 mg/kg) it was 93.35%; in assay [4] (15 mg/kg), 96.14%. Moreover, the figures for the “Tumor volume (x ± S)” value in assay [4] (5 mg/kg), in assay [4] (10 mg/kg) and in assay [4] (15 mg/kg) were 177.55 ± 51.28, 75.06 ± 19.64 and 21.79 ± 3.50, respectively.
